Measurements: patent US10206894B2, “Compounds for use in treatment of mucositis” (priority 2011, dated 2019)
Where two headings read alike, the source gives them in different places.

How the values were obtained:
[1] = tested on: radiation-induced oral mucositis, left buccal cheek pouch; type: in vivo; conditions: for mean daily mucositis scores vs untreated control (Mann-Whitney Rank-sum), efficacy: topical three times per day
Description: In the irradiated hamster cheek pouch model of oral mucositis, the hamster cheek pouch is everted and irradiated to produce a localized mucositis. The progression and resolution of mucositis in the hamster model is very similar to that observed in the human condition and the model has been validated clinically with respect to dosing schedules of therapeutic agents (Murphy et al., Clin. Cancer Res., 2008, 14, 4292-4297; Alvarez et al., Clin. Cancer Res., 2003, 9, 3454-3461; and Schuster et al., J. Clin. Oncol., 2006, 24, 6537). Briefly, on day 0, all animals were given an acute radiation dose directed to their left buccal cheek pouch. Test articles were applied topically to the left pouch three times per day from day 0 to day 20 and mucositis was evaluated clinically starting on day 6, and continued on alternate days until […]. Study endpoints were mucositis score, weight change and survival. Mucositis was scored visually by comparison to a validated photographic scale. The scale ranges from 0 for normal, to 5 for severe ulceration. The clinical mucositis score of 3 in hamsters indicates the presence of an ulcer. In terms of the syndrome, it is believed that the dose-limiting chemotherapeutic- or radiation-induced pain is associated with frank ulceration; therefore a compound that prevents ulceration in the model might have utility in the clinical setting.
To evaluate mucositis severity, animals were anesthetized with an inhalation anesthetic, and the left cheek pouch everted. Mucositis was scored visually by comparison to a validated photographic scale. The scale ranges from 0 for normal, to 5 for severe ulceration. In descriptive terms, this scale is defined as follows: […]
A score of 1-2 is considered to represent a mild stage of injury, whereas a score of 3-5 is considered to indicate moderate to severe mucositis. In terms of the syndrome, it is believed that the dose-limiting chemotherapeutic- or radiation-induced pain is associated with frank ulceration; therefore a compound that prevents ulceration in the model might have utility in the clinical setting. In the hamster model, a clinical mucositis score of 3 indicates the presence of an ulcer and the duration of scores of 3 or greater is used as a primary measurement of efficacy in mucositis treatment. Ulceration is the point in the development of mucositis where the physical integrity of the oral mucosa is breached. In the clinic, a patient presenting with severe oral ulcerations may require hospitalization for analgesic, narcotic and/or antibiotic therapies or fluid support.
On day 0, all animals were given an acute radiation dose directed to their left buccal cheek pouch. This was accomplished by anesthetizing the animals and everting the left buccal pouch, while protecting the rest of the animals with a lead shield. Test agents were applied topically to the left buccal pouch three times per day from day 0 to day 20. Mucositis was evaluated clinically starting on day 6, and continued on alternate days until day 28. Study endpoints were mucositis score, weight change and survival. Mucositis was scored visually by comparison to a validated photographic scale. No treatment-related deaths were recorded throughout the study. The mean daily percent weight gains were similar in all groups and there were no apparent toxicities in any of the test agent treatment groups. Differences between the ulcerative severity in controls and the treated groups were assessed in two ways. First, mean daily mucositis scores for each group at each time-point were compared with the untreated control group using the Mann-Whitney Rank-sum analysis. […] At 0.3 mg/ml, efficacy was partial early in the treatment period.
Alternately, ulcerative severity differences between control and treatment groups were assessed by the comparison of the number of days with an ulcer (i.e., a score of 3 or higher) using a chi-squared (χ2) test.

[2] = tested on: FaDu human head and neck cancer xenograft; test: Tumor growth and response to therapy in FaDu xenograft; type: in vivo, nude mice (nu/nu); conditions: for mice euthanized for tumor volume in excess of 1500 mm^3: vehicle groups 43.3%; for survival at Day 29: vehicle groups 26.7%; for mice euthanized for tumor ulceration: vehicle groups 30%
Description: Ninety (90) male nude mice (nu/nu) were divided into nine (9) groups of ten […]) mice per group. To ensure that a sufficient number of tumor-bearing animals were available for this study, a total of 100 mice were inoculated s.c. in the flank with 1×10^6 FaDu cells. FaDu (HTB-43) human head and neck cancer cells were obtained from ATCC. These cells were grown in EMEM medium supplemented with 10% Fetal Calf Serum (FCS), 1% penicillin and streptomycin, and 2 mM L-Glutamine. […] The flask was incubated at 37° C. until cells detached. Cells were then sub-cultured at a ratio of 1:3. […] Tumors were measured once every two days with micro-calipers, and tumor volume was calculated as (length×width×width)/2. Where animals were euthanized for tumor volume exceeding the maximum permissible by IACUC rules (1500 mm^3) or tumor ulceration, the last measurement was carried forward in calculations of mean tumor volume.
All animals were weighed every day and their survival recorded, to assess possible differences in animal weight among treatment groups as an indication of possible toxicity resulting from the treatments. […] Any animals whose tumor grew to over 1500 mm^3 were also euthanized.
Further analysis of the tumor volume data was performed by calculating the mean area under the curve (AUC) for the tumor volume for each animal and comparing the groups using an ANOVA on ranks test. Due to the impact of animals euthanized for tumor ulceration or volume in excess of 1500 mm^3, this analysis was performed on data to Day 15 as well as on the full data set to Day 29.

`N=C(N)NCCCCC(=O)Nc1cc(C(F)(F)F)cc(NC(=O)c2cc(C(=O)Nc3cc(C(F)(F)F)cc(NC(=O)CCCCNC(=N)N)c3OC3CCNC3)ncn2)c1OC1CCNC1` (centres unmarked) [Compound X] was tested, and the “mean daily mucositis scores vs untreated control (Mann-Whitney Rank-sum), efficacy” value ([1]; 0.3 mg/ml, early in the treatment period) was “partial”, the “mean daily mucositis scores vs untreated control (Mann-Whitney Rank-sum), efficacy” value ([1]; 1, 3 and 10 mg/ml groups, by Day 12 through Day 28) was “robust efficacy” and the “mucositis scores, number of days with an ulcer (score of 3 or higher), chi-squared test vs control” value ([1]; 1, 3 and 10 mg/ml/dose, p<0.001) was “statistically significant improvements”. For the same compound, the “treatment days with a clinical score ≥3” value ([1]; 1, 3 and 10 mg/ml/dose, vehicle control 42.7%) was < 5%, the “% reduction of animal days with OM scores ≥ 3” value ([1]; Acute Radiation) was 90.6%-95.3% and the “impact of Kleptose on the response (mucositis scores)” value ([1]; Kleptose in the vehicle or with 1 mg/kg Compound X) was “did not significantly impact the response”. For the same compound, the “daily mean mucositis scores and number of days animals exhibited ulceration” value ([1]; acute radiation model, oral rinse 3 times daily, 28 day treatment regimen) was “significantly reduced”, the “adverse findings in weight gain, general behavior in the home cage, or clinical signs” value ([1]; hamster, in vivo) was “no adverse findings” and the mean tumor volume ([2]; 0.06 mg/kg, Day 1) was 102 mm^3. It also gave a mean tumor volume ([2]; 0.06 mg/kg, Day 15) of 904 mm^3, a mean tumor volume ([2]; 0.06 mg/kg, Day 27 when final animal in group was euthanized) of 2234 mm^3 and a mean tumor volume ([2]; 0.3 mg/kg, Day 1) of 96 mm^3. It also gave a mean tumor volume ([2]; 0.3 mg/kg, Day 15) of 869 mm^3, a mean tumor volume ([2]; 0.3 mg/kg, end of the study) of 1002 mm^3 and a mean tumor volume ([2]; cisplatin plus Compound X 0.06 mg/kg, Day 1) of 100 mm^3. For the same compound, the mean tumor volume ([2]; cisplatin plus Compound X 0.06 mg/kg, Day 15) was 518 mm^3, the mean tumor volume ([2]; cisplatin plus Compound X 0.06 mg/kg, end of the study) was 338 mm^3 and the mean tumor volume ([2]; cisplatin plus Compound X 0.3 mg/kg, Day 1) was 104 mm^3. The mean tumor volume ([2]; cisplatin plus Compound X 0.3 mg/kg, Day 15) was 564 mm^3, the mean tumor volume ([2]; cisplatin plus Compound X 0.3 mg/kg, end of the study) was 510 mm^3 and the “p, tumor volume AUC to Day 15 vs vehicle control group (ANOVA on ranks)” value ([2]; cisplatin plus Compound X at 0.06 mg/kg) was 0.001. The “p, tumor volume AUC to Day 15 vs vehicle control group (ANOVA on ranks)” value ([2]; cisplatin plus Compound X at 0.3 mg/kg) was 0.002, the “mice euthanized for tumor volume in excess of 1500 mm^3” value ([2]; groups treated with 0.06 mg/kg IP QD Days 0-28 (alone, with radiation or cisplatin)) was 46.7% and the “survival at Day 29” value ([2]; groups treated with 0.06 mg/kg) was 20%. For the same compound, the “mice euthanized for tumor ulceration” value ([2]; groups treated with 0.06 mg/kg) was 33.3%, the “mice euthanized for tumor volume in excess of 1500 mm^3” value ([2]; groups treated with 0.3 mg/kg IP QD Days 0-28 (alone, with radiation or cisplatin)) was 40% and the “survival at Day 29” value ([2]; groups treated with 0.3 mg/kg) was 36.7%. The “mice euthanized for tumor ulceration” value ([2]; groups treated with 0.3 mg/kg) was 23.3%, the mean tumor volume ([2]; radiation plus 0.06 mg/kg, Day 1) was 96 mm^3 and the mean tumor volume ([2]; radiation plus 0.06 mg/kg, Day 15) was 596 mm^3. The mean tumor volume ([2]; radiation plus 0.06 mg/kg, end of the study) was 1027 mm^3, the mean tumor volume ([2]; radiation plus 0.3 mg/kg, Day 1) was 108 mm^3 and the mean tumor volume ([2]; radiation plus 0.3 mg/kg, Day 15) was 616 mm^3. The mean tumor volume ([2]; radiation plus 0.3 mg/kg, end of the study) was 1376 mm^3 and the “p, tumor volume AUC to Day 15 vs vehicle control group (ANOVA on ranks)” value ([2]; radiation plus Compound X at 0.3 mg/kg) was 0.017.
